# Test results published in patent US8293781B2, “Indole derivatives having cPLA2 inhibiting activity and applications and production methods of the same” (Daiichi Sankyo Company, Limited, priority 2007, dated 2012).
# Where a name gives a salt, the structure may show the parent alone.
# Molecular target: T1, cPLA2 crudely purified from the cytoplasm fraction of U937 (Homo sapiens, UniProt P47712)
# T1 construct: cPLA2 crudely purified from the cytoplasm fraction of U937; endogenous in cells; host or cells: U937 cells (cytoplasm fraction, crude purification)
# T1 sequence (P47712 1-749): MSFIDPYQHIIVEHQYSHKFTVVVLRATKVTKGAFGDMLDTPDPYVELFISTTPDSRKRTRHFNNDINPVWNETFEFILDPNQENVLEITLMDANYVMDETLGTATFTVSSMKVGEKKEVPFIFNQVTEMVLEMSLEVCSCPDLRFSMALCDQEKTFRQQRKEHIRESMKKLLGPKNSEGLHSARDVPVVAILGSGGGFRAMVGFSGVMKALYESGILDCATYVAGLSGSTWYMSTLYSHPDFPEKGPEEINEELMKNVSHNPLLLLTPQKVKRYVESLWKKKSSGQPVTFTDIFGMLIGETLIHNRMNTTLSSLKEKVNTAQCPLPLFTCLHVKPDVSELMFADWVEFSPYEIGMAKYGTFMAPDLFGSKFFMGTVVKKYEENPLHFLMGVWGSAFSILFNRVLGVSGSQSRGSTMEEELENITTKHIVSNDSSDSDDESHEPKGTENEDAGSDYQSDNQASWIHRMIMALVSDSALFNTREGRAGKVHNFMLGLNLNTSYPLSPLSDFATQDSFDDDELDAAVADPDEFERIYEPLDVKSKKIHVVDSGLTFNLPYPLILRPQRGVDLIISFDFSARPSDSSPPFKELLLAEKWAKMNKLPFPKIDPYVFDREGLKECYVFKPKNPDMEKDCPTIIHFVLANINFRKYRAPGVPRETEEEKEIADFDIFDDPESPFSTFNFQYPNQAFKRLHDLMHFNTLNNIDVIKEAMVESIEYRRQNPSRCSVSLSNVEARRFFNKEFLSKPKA
# Test: Measurement of cPLA2 inhibitory activity (release of [14C]-arachidonic acid from phosphatidyl choline liposome)
# Assay type: biochemical
# Conditions: cPLA2 from U937 cytoplasm fraction, [14C]arachidonyl-phosphatidyl choline liposome, 37° C., 60 minutes; read-out: cPLA2 inhibitory activity, 50% inhibiting concentration IC50
# Procedure, shortened: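 The read-out is radioactivity from extracted [14C]-arachidonic acid, freed over 60 min at 37° C from liposomes of 14C-arachidonyl phosphatidylcholine (10 μM PC in the added solution). Buffer was 50 mM HEPES pH 7.5 with Ca2+, DTT, NaCl and BSA. IC50 was derived from inhibition relative to enzyme control minus no-enzyme control.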
row,Compound,IC50
1,"O=C(O)CCc1ccc2c(c1)c(CCc1ccccc1)cn2-c1ccc(OCCCc2cccnc2)cc1 [Example 257, 3-{3-(2-phenylethyl)-1-[4-(3-pyridin-3-ylpropoxy)phenyl]-1H-indol-5-yl}propanoic acid]",7 nM
2,"O=C(O)CCc1ccc2c(c1)c(CCc1ccccc1)cn2-c1ccc(OCCCc2cccnc2)cc1 [Example 258, 3-{3-(2-phenylethyl)-1-[4-(3-pyridin-3-ylpropoxy)phenyl]-1H-indol-5-yl}propanoic acid hydrochloride]",2 nM
3,"O=C(O)CCc1ccc2c(c1)c(CCc1ccccc1)cn2-c1ccc(OCCCc2ccncc2)cc1 [Example 260, 3-{3-(2-phenylethyl)-1-[4-(3-pyridin-4-ylpropoxy)phenyl]-1H-indol-5-yl}propanoic acid]",8 nM
4,"O=C(O)/C=C/c1ccc2c(c1)c(CCc1ccccn1)cn2-c1ccccc1 [Example 263, (2E)-3-[1-phenyl-3-(2-pyridin-2-ylethyl)-1H-indol-5-yl]-2-propenoic acid]",1440 nM
5,"O=C(O)CCc1ccc2c(c1)c(CCc1ccccn1)cn2-c1ccccc1 [Example 264, 3-[1-phenyl-3-(2-pyridin-2-ylethyl)-1H-indol-5-yl]propanoic acid]",338 nM
6,"O=C(O)/C=C/c1ccc2c(c1)c(CCc1ccccn1)cn2-c1ccc(OCc2ccccc2)cc1 [Example 267, (2E)-3-{1-[4-(benzyloxy)phenyl]-3-(2-pyridin-2-ylethyl)-1H-indol-5-yl}-2-propenoic acid]",110 nM
7,"O=C(O)CCc1ccc2c(c1)c(CCc1ccccn1)cn2-c1ccc(OCc2ccccc2)cc1 [Example 268, 3-{1-[4-(benzyloxy)phenyl]-3-(2-pyridin-2-ylethyl)-1H-indol-5-yl}propanoic acid]",19 nM
8,"O=C(O)CCc1ccc2c(c1)c(CCc1ccccn1)cn2-c1ccc(O)cc1 [Example 269, 3-[1-(4-hydroxyphenyl)-3-(2-pyridin-2-ylethyl)-1H-indol-5-yl]propanoic acid hydrochloride]",77 nM
9,"O=C(O)/C=C/c1ccc2c(c1)c(CCc1ccccn1)cn2-c1ccc(O)cc1 [Example 271, (2E)-3-[1-(4-hydroxyphenyl)-3-(2-pyridin-2-ylethyl)-1H-indol-5-yl]-2-propenoic acid]",357 nM
10,"O=C(O)CCc1ccc2c(c1)c(CCc1ccccn1)cn2-c1ccc(Oc2ccccc2)cc1 [Example 275, 3-[1-(4-phenoxyphenyl)-3-(2-pyridin-2-ylethyl)-1H-indol-5-yl]propanoic acid hydrochloride]",12 nM
11,"O=C(O)CCc1ccc2c(c1)c(CCc1ccccn1)cn2-c1ccc(OC(F)F)cc1 [Example 277, 3-{1-[4-(difluoromethoxy)phenyl]-3-(2-pyridin-2-ylethyl)-1H-indol-5-yl}propanoic acid hydrochloride]",98 nM
12,"O=C(O)CCc1ccc2c(c1)c(CCc1ccccn1)cn2-c1ccc(OCCO)cc1 [Example 279, 3-{1-[4-(2-hydroxyethoxy)phenyl]-3-(2-pyridin-2-ylethyl)-1H-indol-5-yl}propanoic acid hydrochloride]",245 nM
13,"O=C(O)CCc1ccc2c(c1)c(CCc1ccccn1)cn2-c1cccc(OCc2ccccc2)c1 [Example 281, 3-{1-[3-(benzyloxy)phenyl]-3-(2-pyridin-2-ylethyl)-1H-indol-5-yl}propanoic acid hydrochloride]",278 nM
14,"O=C(O)CCc1ccc2c(c1)c(CCc1ccccn1)cn2-c1cccc(O)c1 [Example 282, 3-[1-(3-hydroxyphenyl)-3-(2-pyridin-2-ylethyl)-1H-indol-5-yl]propanoic acid hydrochloride]",582 nM
15,"O=C(CCc1ccc2c(c1)c(CCc1ccccc1)cn2-c1ccc(O)cc1)NO [Example 284, N-hydroxy-3-[1-(4-hydroxyphenyl)-3-(2-phenylethyl)-1H-indol-5-yl]propanamide]",> 3000 nM
16,"O=C(CCc1ccc2c(c1)c(CCc1ccccc1)cn2-c1ccc(OC(F)F)cc1)NO [Example 286, 3-{1-[4-(difluoromethoxy)phenyl]-3-(2-phenylethyl)-1H-indol-5-yl}-N-hydroxypropanamide]",> 3000 nM
